Laboratory results published in patent publication US20250032430A1, “USES OF RHODOQUINONE FOR THE TREATMENT OF DISEASE” (Whitehead Institute for Biomedical Research, priority 2021, published 2025).

Key:
[1] = system: mammalian cells; assay: Resistance of cells to hypoxia; type: cell-based
[2] = system: SDH complex; assay: SDH activity assay in permeabilized purified mitochondria; type: biochemical, human
Procedure: SDH activity was examined in permeabilized purified mitochondria. The rate of succinate oxidation was measured by monitoring fumarate production over time after initiating the reaction with succinate. The rate of fumarate reduction was measured in a separate assay by monitoring the rate of succinate production over time after initiating the reaction with fumarate and NADH. […] Moreover, complex I inhibition by piericidin suppressed the fumarate reduction caused by antimycin treatment (FIG. 2I).
Isolation of Mitochondria for Biochemical Assays: 143B cells were scraped and pelleted at 1000×g for 5 minutes. Cell pellets were washed in 1×PBS and pelleted at 1000×g for 5 minutes. For tissue samples, approximately 100 mg of tissue powder was weighed out. Tissue powder or cells were re-suspended in isolation buffer (200 mM sucrose, 10 mM Tris HCl, 1 mM EGTA/Tris, pH 7.4 (adjusted with 1M HEPES)), transferred into an ice-cold glass homogenizer (VWR), and dounced with 15-30 strokes. Homogenates were transferred into tubes and spun at 600×g for 10 minutes at 4° C. Supernatants were moved to a new tube and centrifugation was repeated. Then, supernatants were moved to a new tube and pelleted at 7,000×g for 10 minutes at 4° C. Pellets were washed in isolation buffer and centrifugation was repeated. Pellets were subsequently stored at −80° C. until use.
SDH Activity Assay: Purified mitochondria were re-suspended in buffer (0.22 M Mannitol, 0.075 M Sucrose, 1 mM EDTA, 10 mM HEPES pH 7.4, and one complete Protease inhibitor tablet (Sigma)) to a concentration of 5 mg/mL and underwent 5 freeze-thaw cycles to permeabilize them. 30 μg mitochondria (6 uL) were diluted 1:10 (in 54 uL) of SDH activity assay buffer (27.5 mM KH2PO4 pH 7.4, 1.1 mM CoQ-10 (Sigma), 3.5 g/L BSA). Reactions were supplemented with DMSO, 1 μM antimycin, or 1 μM piericidin and pre-incubated at 37° C. for 10 minutes. […] Samples were centrifuged at 16,000×g for 10 minutes at 4° C. and supernatants were dried down and analyzed by LC-MS for succinate and fumarate.

[3] = target: T1, SDH complex (Homo sapiens, UniProt O14521+P21912+P31040+Q99643); assay: SDH forward/reverse activity (succinate oxidation, fumarate reduction) by stable isotope tracing in cells; type: cell-based
T1 construct: endogenous in cells; host or cells: 143B cells (A5: live cells; A6: permeabilized mitochondria purified from them)
Excerpt: Fumarate reduction can be monitored in cells by the stable isotope tracing of either ^13C4-aspartate or ^13C5^15N2-glutamine. ^13C4-aspartate contributes to the fumarate pool via oxaloacetate and malate and so should lead to the production of ^13C4-succinate upon fumarate reduction (FIG. 2B). ^13C5^15N2-glutamine contributes to the fumarate pool through the reductive arm of the TCA cycle via glutamate, α-ketoglutarate, isocitrate, citrate, oxaloacetate, and malate. A key distinction between the two labeling approaches is that ^13C5^15N2-glutamine enriches the fumarate pool more upon antimycin treatment due to enhanced reductive carboxylation flux, whereas ^13C4-aspartate labels the fumarate pool to equivalent extents in vehicle and antimycin-treated cells (FIG. 2C). Therefore, with stable isotope tracing of ^13C4-aspartate, the level of ^13C4-succinate is a direct measure of fumarate reduction, whereas the stable isotope tracing of ^13C5^15N2-glutamine requires a ratiometric analysis of labeled succinate to labeled fumarate to normalize for differences in the extent of fumarate labeling.
To test if hypoxia triggers electron leakage onto fumarate or a net-reversal of the SDH complex, the ^13C5^15N2-glutamine tracer was utilized, which enables simultaneous quantification of the forward and reverse activities of SDH through the generation of unique isotopologues upon flux through the oxidative arm (α-ketoglutarate to succinate) compared to the reductive arm (α-ketoglutarate—via citrate—to fumarate) of the TCA cycle (FIG. 2E). In this assay, the forward (succinate oxidation) reaction was defined as the ratio of percent labeled ^13C4-fumarate to its precursor ^13C4-succinate (FIG. 2E) and the reverse (fumarate reduction) as that of percent labeled ^13C3-succinate to its precursor ^13C3-fumarate (FIG. 2E). This type of analysis can be performed when the labeling is in the steady-state, which was determined to be after 4-8 hours of incubation with ^13C5^15N2-glutamine (FIG. S2E-F). This ratiometric analysis of the succinate and fumarate isotopologues eliminates potential biases in the assay, such as higher ^13C3-fumarate labeling in antimycin-treated cells caused increased reductive carboxylation flux (FIG. S2E).
Stable isotope tracing in cells: Cells were seeded 24 hours prior to the experiment in 6-well dishes at 70% density. For stable isotope tracing of glutamine, glutamine-free DMEM (ThermoFisher) was supplemented with 2 mM ^13C5^15N2-glutamine (Sigma), 1 mM pyruvate, 5% FBS, 1% P/S, 0.1 mg/mL uridine. For stable isotope tracing of aspartate, DMEM containing 5% FBS, and 1% penicillin and streptomycin, and 0.1 mg/mL uridine (Sigma) was supplemented with the designated amount of 13C4-aspartate (Sigma) and the pH adjusted to 7.4. Uridine was left out of the media for stable isotope tracing experiments measuring nucleotide biosynthesis. Unless otherwise stated, for all experiments, cells were treated for 8 hours and metabolites were isolated as described below. Relevant compounds were added at the start of the incubation periods.

[4] = system: liver, kidney, heart, and skeletal muscle; assay: Ex vivo O2 consumption of mouse tissues
Procedure: Oxygen Consumption Rate (Seahorse): Respiration was measured on intact 143B cells and on mitochondria purified from tissue on the Seahorse XFe-96 Analyzer (Seahorse Bioscience). Cells were incubated in a non-CO2 37° C. incubator in serum-free Seahorse XF RPMI Media (Seahorse Bioscience, Catalog #103336) supplemented with 5 mM glucose, 2 mM glutamine, and 1 mM pyruvate. Oxygen consumption rate (OCR) was measured over a period of 30 minutes. Oxygen consumption rate was also measured on mitochondria purified from mouse tissues. Mitochondria were incubated in MAS buffer (70 mM sucrose, 220 mM mannitol, 10 mM KH2PO4, 5 mM MgCl2, 2 mM HEPES pH 7.2, 1 mM EGTA, 2% BSA) supplemented with 2 mM ADP, 5 mM glutamate, 5 mM malate, 5 mM pyruvate, and 2.5 mM succinate. Oxygen consumption rate (OCR) was measured over a period of 30 minutes.

[5] = 13C5 15N2-glutamine tracing, 143B cells

T1 sequence (P31040 43-664): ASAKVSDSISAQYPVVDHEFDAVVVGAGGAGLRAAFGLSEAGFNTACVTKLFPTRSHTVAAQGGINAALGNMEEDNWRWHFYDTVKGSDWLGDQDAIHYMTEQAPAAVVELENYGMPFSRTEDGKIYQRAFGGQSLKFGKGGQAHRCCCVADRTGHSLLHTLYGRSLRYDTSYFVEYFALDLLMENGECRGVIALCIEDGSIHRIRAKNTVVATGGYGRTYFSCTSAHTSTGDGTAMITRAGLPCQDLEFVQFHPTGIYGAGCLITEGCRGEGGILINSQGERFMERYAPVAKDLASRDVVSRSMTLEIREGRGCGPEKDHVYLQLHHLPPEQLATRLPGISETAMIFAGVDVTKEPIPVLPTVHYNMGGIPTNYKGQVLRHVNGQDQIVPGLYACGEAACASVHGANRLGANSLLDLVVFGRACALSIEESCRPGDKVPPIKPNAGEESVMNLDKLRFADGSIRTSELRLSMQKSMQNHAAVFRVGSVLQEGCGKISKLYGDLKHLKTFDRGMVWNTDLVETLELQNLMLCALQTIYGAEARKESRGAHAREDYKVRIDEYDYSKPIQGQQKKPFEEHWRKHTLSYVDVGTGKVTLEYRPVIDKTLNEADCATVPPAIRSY
T1 sequence (P21912 29-280): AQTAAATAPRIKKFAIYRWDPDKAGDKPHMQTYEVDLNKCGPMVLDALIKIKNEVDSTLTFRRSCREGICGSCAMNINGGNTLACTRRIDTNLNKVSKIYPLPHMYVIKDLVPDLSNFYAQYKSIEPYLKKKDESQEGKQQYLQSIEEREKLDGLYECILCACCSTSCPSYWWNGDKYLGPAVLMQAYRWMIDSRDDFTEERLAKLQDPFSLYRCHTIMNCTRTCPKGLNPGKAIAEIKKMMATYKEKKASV
T1 sequence (Q99643 30-169): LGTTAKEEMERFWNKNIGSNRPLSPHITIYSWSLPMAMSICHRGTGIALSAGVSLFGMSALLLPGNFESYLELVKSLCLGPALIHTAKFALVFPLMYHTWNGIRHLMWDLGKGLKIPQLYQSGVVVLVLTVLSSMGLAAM
T1 sequence (O14521 57-159): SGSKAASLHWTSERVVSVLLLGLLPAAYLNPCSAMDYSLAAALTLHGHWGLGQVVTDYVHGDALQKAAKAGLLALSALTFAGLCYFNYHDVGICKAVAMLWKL

rhodoquinone
resistance to hypoxia [1]: renders mammalian cells resistant to hypoxia | fumarate reduction (succinate production over time) ([2]; purified permeabilized mitochondria from WT and RquA-expressing cells, fumarate and NADH, absence of antimycin): sufficient to drive fumarate reduction | terminal electron acceptor use in the mammalian ETC ([3]; rhodoquinone generated by RquA expression in cells): promotes the use of fumarate as a terminal electron acceptor

antimycin
rate of succinate oxidation versus fumarate reduction (vehicle: succinate oxidation higher) ([2]; permeabilized purified mitochondria, 1 μM antimycin): the opposite was the case | O2 consumption [4]: ablated | fumarate reduction (SDH reverse activity) [3, 5]: increased | succinate oxidation (SDH forward activity) [3, 5]: decreased | conversion of fumarate into succinate (13C4-succinate production, 13C4-aspartate tracing) ([3]; WT 143B cells, 500 nM antimycin): robustly stimulated | ratio of isotopologues: fumarate reduction over succinate oxidation ([3]; antimycin treatment (also hypoxia exposure)): approximately 4 fold | fumarate reduction and succinate oxidation reactions ([3]; cells lacking SDHA or SDHB): not altered
